PubChem BioAssay AID1944 (The Scripps Research Institute Molecular Screening Center, 2009)
Activity calls are given as the source filed them. How the calls were made is not given here.

Biological target: Replicase polyprotein 1ab (Severe acute respiratory syndrome coronavirus) (UniProt P0C6X7)
Experiment: papain-like protease inhibition, dose response, biochemical, luminescence, counter-screen for SARS-CoV 3CLpro inhibitor project (AID 1944)
Details: SARS-CoV PLpro enzymatic assay

Structure (SMILES) | IC50
COc1ccc(C(=O)n2c(SC)nc3cc4c(cc32)OCCO4)cc1 | 2.46 µM
O=C1C(=O)N(CC2COc3ccccc3O2)c2ccccc21 (centres undefined) | > 59.6 µM (inactive)
CC(=O)n1cc(N(C(=O)CCl)c2ccc([N+](=O)[O-])cc2)c2ccccc21 | > 59.6 µM (inactive)
COc1ccc2cc(C3(C)NC(=O)N(CC(=O)NCc4ccco4)C3=O)ccc2c1 (centres undefined) | > 59.6 µM (inactive)
